From patent US20030109570A1 (priority 2002, published 2003)
Counter-ions that a name gives are not always drawn.

Experiments:
human PPARγ receptor = target: T1, human PPARγ receptor (Homo sapiens, UniProt P37231); assay: Luciferase assay using human PPARγ receptor (Gal4 chimera, CV-1 cells); type: cell-based; conditions: 24 h, luciferase activity of Pioglitazone at 1 μM = 100, read-out: PPARγ agonist activity, Relative activity
T1 construct: expressed in transfected cells; host or cells: CV-1 cells, pSG5-based Gal4-PPAR expression vector
T1 sequence (P37231 204-505): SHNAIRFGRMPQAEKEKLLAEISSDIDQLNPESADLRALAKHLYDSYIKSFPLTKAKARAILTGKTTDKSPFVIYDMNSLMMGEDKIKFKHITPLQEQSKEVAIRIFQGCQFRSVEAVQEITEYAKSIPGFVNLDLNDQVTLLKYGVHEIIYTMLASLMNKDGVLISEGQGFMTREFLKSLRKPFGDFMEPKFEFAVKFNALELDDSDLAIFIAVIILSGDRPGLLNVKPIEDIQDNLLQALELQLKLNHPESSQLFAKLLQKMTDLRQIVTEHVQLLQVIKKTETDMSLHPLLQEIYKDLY
Method: (§1) 1) Materials for a Luciferase Assay Using Human PPARα and γ
(§2) The entire procedure was conducted using a usual yeast one- or two-hybrid system according to a basic genetic engineering process.
(§3) pGL2-UAS5-TK-luc was prepared as a reporter plasmid having a response sequence of the Gal4 protein as an yeast basic transcription factor and a luciferase gene (luc) under the control by an enhancer sequence with five times repeats of UAS and the thymidine kinase (TK) promoter promoter.
(§4) A vector expressing a chimera receptor in which a ligand binding region in an intranuclear receptor human PPARα or γ receptor was fused to the […] terminus in the DNA binding region of the yeast Gal4 protein was prepared as follows. Specifically, using pSG5 (trade name, STRATAGENE, Catalogue No.216201) as a basic expression vector, the structural gene was replaced with that of a chimera receptor.
(§5) A DNA encoding the ligand binding region in human PPARα or γ receptor was inserted downstream of the DNA binding region in the Gal4 protein, i.e., the DNA encoding the 1st to 147th amino acid sequence such that the frames were aligned and it was inserted downstream of the promoter-enhancer region in pSG5 (trade name). For localizing the expressed chimera receptor in the nucleus, the DNA sequence was constructed such that a nuclear transition signal derived from SV-40T antigen, Ala Pro Lys Lys Lys Arg Lys Val Gly (SEQ ID NO. 4) was present at the amino terminus of the ligand binding region in the human PPARα or γ receptor.
(§6) As the structural gene segment for a ligand binding region in the human PPARα or γ receptor, a DNA was used which encoded:
human PPARγ ligand binding region: Ser^176-Tyr^478
which correspond to Ser^204-Tyr^506 in the human PPARγ 1 receptor and PPARγ 2 receptor and thus have the same base sequence, from structural comparison for human PPAR receptors described in R. Mukherjee et al., J. Steroid Biochem. Molec. Biol., Vol. 51, p.157 (1994); M. E. Green et al. (Gene Expression., Vol.4, p.281 (1995). For monitoring an effect on basic transcription, was also prepared an expression vector having encoding only the DNA binding region of the Gal4 protein lacking the PPAR ligand binding region, the 1st to 147th amino acid sequence and a nuclear transition signal for SV-40T-antigen.
(§7) 2) Luciferase Assay Using the Human PPARα or γ Receptor
(§8) CV-1 cells used as a host cell were cultured as usual. Specifically, a fetal calf serum (Intergen, Catalogue No.1020-90) was added to the Dulbecco modified eagle medium (DMEM) to the final concentration of 10%, and penicillin G and streptomycin sulfate were then added to the final concentrations of 50 U/mL and 50 μg/mL, respectively. In the medium, the cells were cultured at 37° C. under 5% carbon dioxide.
(§9) The day before transfection, the cells were inoculated in a 24 well plate at 1.5×10^5 cells/well in advance. LipofectAMINE (trade name, GIBCOBRL, Catalogue No.26300-61) was used for transfection. Specifically, for each well, in 40 μL of a serum-free medium Opti-MEM (trade name, GIBCOBRL, Catalogue No.31985-070) were well mixed 100 ng of a reporter plasmid, 12.5 ng of Gal4-PPAR expression vector, 200 ng of pRL-TK (trade name) as an internal control, 287.5 ng of pGEM-3Zf(+) (trade name, PROMEGA, Catalogue No. P2271) as a carrier DNA and 2.6 μL of LipofectAMINE (trade name, GIBCOBRL, Catalogue No.26300-61). To the mixture was added 170.2 μL of Opti-MEM (trade name). After washing with PBS (Phosphate Buffered Saline) and Opti-MEM (trade name), the mixture was added to the above cells. After culturing at 37° C. for 16 hours, the medium was replaced with DMEM-10% charcoal-[…] treated fetal calf serum (trade name, HyClone, Catalogue No. SH30068.03) containing a compound of this invention. After culturing at 37° C. for 24 hours, the cells were lysed and determined for its luciferase activity as usual.

human PPARα receptor = target: T2, human PPARα receptor (Homo sapiens, UniProt Q07869); assay: Luciferase assay using human PPARα receptor (Gal4 chimera, CV-1 cells); type: cell-based; conditions: 24 h, luciferase activity of Wy-14.643 at 10 μM = 100, read-out: PPARα agonist activity, Relative activity
T2 construct: and; expressed in transfected cells; host or cells: CV-1 cells, pSG5-based Gal4-PPAR expression vector
T2 sequence (Q07869 167-468): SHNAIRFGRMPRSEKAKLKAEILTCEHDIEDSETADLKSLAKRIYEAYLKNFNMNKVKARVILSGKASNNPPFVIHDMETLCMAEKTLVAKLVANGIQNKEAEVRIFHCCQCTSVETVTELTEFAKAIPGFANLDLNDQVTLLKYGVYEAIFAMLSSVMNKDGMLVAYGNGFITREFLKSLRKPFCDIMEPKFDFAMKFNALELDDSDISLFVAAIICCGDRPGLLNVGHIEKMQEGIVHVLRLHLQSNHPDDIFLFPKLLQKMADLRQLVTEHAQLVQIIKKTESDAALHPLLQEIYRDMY
Method: as §1, §2, §3, §4, §5, §6
human PPARα ligand binding region: Ser^167-Tyr^468; and
as §7, §8, §9

KKAy mouse = assay: Hypoglycemic and hypolipidemic effects using a diabetic model mouse (KKAy mouse); type: in vivo; conditions: KKAy mice, 30 mg/kg orally once daily for four days, fifth day vs first day; for Reduction rate of a free fatty acid level / Reduction rate of a triglyceride level: plasma
Method: Type II diabetic mice “KK-Ay/Ta Jci” (male, Nippon Clare, 10 weeks, five per a group) in each cage were used. In the morning of the initial day of the study, blood was collected from an orbital vein. A glucose level was determined using a new blood sugar test (Boehringer Mannheim) for a centrifuge supernatant after deproteination of the blood with perchloric acid. The blood was centrifuged to prepare a plasma. Then, a triglyceride and a free fatty acid levels in the plasma were determined using Triglyceride E-Test Wako and NEFA-C Test Wako (Wako Pure Chemicals, Inc.), respectively. […] On the fifth day of the study, a blood was collected for determination of a blood glucose level, a triglyceride level and a free fatty acid level. A group to which only 0.5% aqueous CMC solution was administered was used as a control group while a group to which pioglytazone was administered was used as a positive control. A reduction rate for a parameter in each group was calculated using the following equation.

CCOC(=O)C(C)(Cc1cc2cc(OC)c(OC)cc2s1)Oc1ccc(C#N)cc1 (stereo not drawn) [Example 1]
Emax at 0.1 µM (human PPARγ receptor): 0.4% | Emax at 1 µM (human PPARγ receptor): 3.2% | Emax at 10 µM (human PPARγ receptor): 81.5% | Emax at 0.1 µM (human PPARα receptor): 0.2% | Emax at 1 µM (human PPARα receptor): 0.2% | Emax at 10 µM (human PPARα receptor): 0.5%

COc1cc2cc(CC(C)(Oc3ccc(C#N)cc3)C(=O)O)sc2cc1OC (stereo not drawn) [Example 2]
Emax at 0.1 µM (human PPARγ receptor): 17.8% | Emax at 1 µM (human PPARγ receptor): 81.9% | Emax at 10 µM (human PPARγ receptor): 78.7% | Emax at 0.1 µM (human PPARα receptor): 0.1% | Emax at 1 µM (human PPARα receptor): 0.1% | Emax at 10 µM (human PPARα receptor): 66.4%

COc1cc2cc(CC(C)(Oc3ccc(C(C)C)cc3)C(=O)O)sc2cc1OC (stereo not drawn) [Example 3, 3-(5,6-dimethoxybenzothiophen-2-yl)-2-(4-isopropylphenoxy)-2-methylpropanoic Acid]
Emax at 0.1 µM (human PPARγ receptor): 9.5% | Emax at 1 µM (human PPARγ receptor): 86.7% | Emax at 10 µM (human PPARγ receptor): 86.1% | Emax at 0.1 µM (human PPARα receptor): 13.2% | Emax at 1 µM (human PPARα receptor): 116% | Emax at 10 µM (human PPARα receptor): 111%

COc1cc2sc(CC(C)(Oc3ccc(C(C)C)cc3)C(=O)O)cc2c(Cl)c1OC (stereo not drawn) [Example 4, 3-(4-chloro-5,6-dimethoxybenzothiophen-2-yl)-2-(4-isopropylphenoxy)-2-methylpropanoic Acid]
Reduction rate of a blood glucose level (KKAy mouse): 58% | Reduction rate of a free fatty acid level (KKAy mouse): 69% | Reduction rate of a triglyceride level (KKAy mouse): 85% | Emax at 0.1 µM (human PPARγ receptor): 8% | Emax at 1 µM (human PPARγ receptor): 68% | Emax at 10 µM (human PPARγ receptor): 69.9% | Emax at 0.1 µM (human PPARα receptor): 0.3% | Emax at 1 µM (human PPARα receptor): 2.9% | Emax at 10 µM (human PPARα receptor): 249%

COc1cc2cc(CC(C)(Oc3ccc(C(=N)N4CCOCC4)cc3)C(=O)O)sc2cc1OC (stereo not drawn) [Example 5, 3-(5,6-dimethoxybenzothiophen-2-yl) -2-methyl-2-(4-morpholinoamidinophenoxy)propanoic Acid Hydrochloride]
Emax at 0.1 µM (human PPARγ receptor): 0.3% | Emax at 1 µM (human PPARγ receptor): 0.3% | Emax at 10 µM (human PPARγ receptor): 3.1% | Emax at 0.1 µM (human PPARα receptor): 0.2% | Emax at 1 µM (human PPARα receptor): 0.3% | Emax at 10 µM (human PPARα receptor): 0.7%

COc1cc2sc(/C=C(\Oc3ccc(C(C)C)cc3)C(=O)O)cc2c(Cl)c1OC [Example 6, (Z)-3-(4-chloro-5,6-dimethoxybenzothiophen-2-yl)-2-(4-isopropylphenoxy)propenoic Acid]
Emax at 0.1 µM (human PPARγ receptor): 1.2% | Emax at 1 µM (human PPARγ receptor): 19% | Emax at 10 µM (human PPARγ receptor): 60.1% | Emax at 0.1 µM (human PPARα receptor): 0.1% | Emax at 1 µM (human PPARα receptor): 0.1% | Emax at 10 µM (human PPARα receptor): 0.1%

CCOC(=O)C(C)(Cc1cc2ccccc2s1)C(N)=O (stereo not drawn) [Example 8, 2-(benzothiophen-2-yl)methyl-2-methylmalonamide Ethyl Ester]
Emax at 0.1 µM (human PPARγ receptor): 0.3% | Emax at 1 µM (human PPARγ receptor): 0.3% | Emax at 10 µM (human PPARγ receptor): 0.3% | Emax at 0.1 µM (human PPARα receptor): 0.1% | Emax at 1 µM (human PPARα receptor): 0.1% | Emax at 10 µM (human PPARα receptor): 0.2%

CC(Cc1cc2ccccc2s1)(C(=O)O)C(=O)NC1CCCCC1 (stereo not drawn) [Example 10, 2-(benzothiophen-2-yl)methyl-2-methylmalonic Acid N-cyclohexylamide]
Emax at 0.1 µM (human PPARγ receptor): 1.2% | Emax at 1 µM (human PPARγ receptor): 2.1% | Emax at 10 µM (human PPARγ receptor): 31.2% | Emax at 0.1 µM (human PPARα receptor): 0.1% | Emax at 1 µM (human PPARα receptor): 0.1% | Emax at 10 µM (human PPARα receptor): 20.7%

CC(Cc1cc2ccccc2s1)(C(=O)O)C(=O)N1CCOCC1 (stereo not drawn) [Example 11, 2-(benzothiophen-2-yl)methyl-2-methylmalonic Acid N-morpholinoamide]
Emax at 0.1 µM (human PPARγ receptor): 0.3% | Emax at 1 µM (human PPARγ receptor): 0.3% | Emax at 10 µM (human PPARγ receptor): 0.3% | Emax at 0.1 µM (human PPARα receptor): 0.1% | Emax at 1 µM (human PPARα receptor): 0.2% | Emax at 10 µM (human PPARα receptor): 0.3%

CC(C)c1ccc(NC(=O)C(C)(Cc2cc3ccccc3s2)C(=O)O)cc1 (stereo not drawn) [Example 12, 2-(benzothiophen-2-yl)methyl-2-methylmalonic Acid N-(4-isopropylphenyl)amide]
Emax at 0.1 µM (human PPARγ receptor): 0.3% | Emax at 1 µM (human PPARγ receptor): 0.3% | Emax at 10 µM (human PPARγ receptor): 0.5% | Emax at 0.1 µM (human PPARα receptor): 0.2% | Emax at 1 µM (human PPARα receptor): 0.2% | Emax at 10 µM (human PPARα receptor): 0.2%

COc1cc2cc(CC(C)(C(=O)O)C(=O)NC3CCCCC3)sc2cc1OC (stereo not drawn) [Example 14, 2-(5,6-dimethoxybenzothiophen-2-yl)methyl-2-methylmalonic Acid N-cyclohexylamide]
Emax at 0.1 µM (human PPARγ receptor): 0.3% | Emax at 1 µM (human PPARγ receptor): 0.3% | Emax at 10 µM (human PPARγ receptor): 0.5% | Emax at 0.1 µM (human PPARα receptor): 0.2% | Emax at 1 µM (human PPARα receptor): 0.2% | Emax at 10 µM (human PPARα receptor): 0.6%

COc1cc2cc(CC(C)(Oc3ccc(C#N)cc3)C(N)=O)sc2cc1OC (stereo not drawn) [Example 15]
Emax at 0.1 µM (human PPARγ receptor): 0.5% | Emax at 1 µM (human PPARγ receptor): 0.4% | Emax at 10 µM (human PPARγ receptor): 1.1% | Emax at 0.1 µM (human PPARα receptor): 0.2% | Emax at 1 µM (human PPARα receptor): 0.2% | Emax at 10 µM (human PPARα receptor): 0.1%

CCCCNC(=O)C(C)(Cc1cc2cc(OC)c(OC)cc2s1)Oc1ccc(C#N)cc1 (stereo not drawn) [Example 16]
Emax at 0.1 µM (human PPARγ receptor): 0.4% | Emax at 1 µM (human PPARγ receptor): 0.4% | Emax at 10 µM (human PPARγ receptor): 0.3% | Emax at 0.1 µM (human PPARα receptor): 0.2% | Emax at 1 µM (human PPARα receptor): 0.2% | Emax at 10 µM (human PPARα receptor): 0.1%

CCc1ccc(CCOc2ccc(CC3SC(=O)NC3=O)cc2)nc1 (stereo not drawn) [Pioglytazone, Pioglitazone, reference compound]
Reduction rate of a blood glucose level (KKAy mouse): 28% | Reduction rate of a free fatty acid level (KKAy mouse): 49% | Reduction rate of a triglyceride level (KKAy mouse): 60%
